The results in this text go back to patent US20090105212A1, “NOVEL ADENINE COMPOUND” (priority 2005, published 2009).

As a reminder, the EC50 is the midpoint of the concentration-response curve.

Structures are written as SMILES. Some results are limits rather than exact numbers.

The target of this test is T1, Human TLR7 (Homo sapiens, UniProt Q9NYK1).
T1 construct: expressed in transfected cells; host or cells: HEK293 (hTLR7/seap-293)
T1 sequence (Q9NYK1 27-1049): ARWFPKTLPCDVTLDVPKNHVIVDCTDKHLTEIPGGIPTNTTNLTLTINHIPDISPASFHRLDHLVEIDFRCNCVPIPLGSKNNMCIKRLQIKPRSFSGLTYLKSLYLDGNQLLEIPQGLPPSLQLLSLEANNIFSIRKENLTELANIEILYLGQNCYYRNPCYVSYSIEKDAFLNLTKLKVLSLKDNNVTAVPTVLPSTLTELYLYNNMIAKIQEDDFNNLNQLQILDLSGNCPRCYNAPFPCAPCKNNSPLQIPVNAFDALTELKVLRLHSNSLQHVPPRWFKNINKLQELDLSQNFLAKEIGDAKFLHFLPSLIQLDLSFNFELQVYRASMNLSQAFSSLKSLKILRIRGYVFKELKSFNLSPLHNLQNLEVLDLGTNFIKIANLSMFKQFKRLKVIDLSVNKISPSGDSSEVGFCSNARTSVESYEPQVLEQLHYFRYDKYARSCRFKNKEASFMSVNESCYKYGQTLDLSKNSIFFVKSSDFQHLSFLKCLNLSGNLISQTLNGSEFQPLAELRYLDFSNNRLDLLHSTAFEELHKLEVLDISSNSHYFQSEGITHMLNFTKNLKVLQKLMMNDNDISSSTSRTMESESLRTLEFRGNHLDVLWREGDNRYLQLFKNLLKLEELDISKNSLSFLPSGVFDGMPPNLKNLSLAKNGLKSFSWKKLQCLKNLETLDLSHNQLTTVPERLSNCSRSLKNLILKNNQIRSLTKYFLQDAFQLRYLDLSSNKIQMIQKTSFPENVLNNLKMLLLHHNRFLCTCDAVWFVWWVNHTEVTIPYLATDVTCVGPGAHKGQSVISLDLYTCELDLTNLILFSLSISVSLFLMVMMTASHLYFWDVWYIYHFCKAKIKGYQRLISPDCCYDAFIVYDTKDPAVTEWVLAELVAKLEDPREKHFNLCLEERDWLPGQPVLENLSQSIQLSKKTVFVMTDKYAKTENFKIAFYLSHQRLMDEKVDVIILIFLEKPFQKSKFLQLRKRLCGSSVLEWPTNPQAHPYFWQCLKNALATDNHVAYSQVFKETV
Briefly: Human TLR7 reporter assay (NF-kB-SEAP, HEK293 cells). The class given is cell-based. The following applies: hTLR7/seap-293 cells (HEK293, NF-kB-SEAP reporter), 20 hours incubation, 1 nM-10 μM, absorbance 405 nm; read-out: human TLR7 binding activity (EC50). How it is done:
Human TLR7 Reporter Assay
Human TLR7 or rat TLR7 plasmid and reporter plasmid (NF-kB-SEAP) stably-induced HEK293 cells were suspended in DMEM media (10% […], 1% NEAA, 10 ug/mL blastocidin S HCl, 100 ug/mL Zeocin), and the suspension was seeded in 90 μl/well on 96 well plate (hTLR7/seap-293:20000 cells/well, rTLR7/seap-293:25000 cells/well).
To the cells seeded on 96 well plate was added in 10 μl/well a test compound wherein DMSO stock solution (2 μl) was hundredfold diluted with medium (200 μl) (final concentration; 1 nM-10 μM, common ratio 3). The mixture was stirred tapping in the side of the plate, and then incubated for 20 hours in CO2 incubator. To the cells stimulated by a test compound was added a substrate for reporter assay (substrate for SEAP, pNPP) by 50 μl/well. 10 minutes after the addition of substrate, a quenching solution (4N NaOH) was added by 50 μl/well, and the enzymatic reaction was quenched. Top seal A was attached on the plate, and absorbance was measured by microplate reader (405 nm).

`CCCCOc1nc(N)c2[nH]c(=O)n(Cc3ccc(OCCCCN4CCC(C(=O)OC)CC4)cc3)c2n1` [Example 1, 2-Butoxy-7,8-dihydro-9-[4-{4-[4-(methoxycarbonyl)-piperidin-1-yl]butoxy}benzyl]-8-oxoadenine]: the EC50 came out at 5.7 nM.

Turning to `CCCCOc1nc(N)c2[nH]c(=O)n(Cc3ccc(OCCCCN4CCC(C(=O)OCCCCN(C)C)CC4)cc3)c2n1` [Example 3, 2-butoxy-7,8-dihydro-9-(4-[4-{4-[4-(N,N-dimethylamino)butoxycarbonyl]piperidin-1-yl}butoxy]benzyl)-8-oxoadenine], the EC50 is 7.8 nM.

`CCCCOc1nc(N)c2[nH]c(=O)n(Cc3ccc(OCCCN(C)CC(=O)OC)cc3)c2n1` [Example 4, 2-butoxy-7,8-dihydro-9-[4-{3-[(N-methyl-N-methoxycarbonylmethyl)amino]propoxy}benzyl]-8-oxoadenine]: the EC50 turned out to be 7.8 nM.

For the compound `CCCCOc1nc(N)c2[nH]c(=O)n(Cc3ccc(OCC4CCN(CC(=O)OC)CC4)cc3)c2n1` [Example 5, 2-butoxy-7,8-dihydro-9-{4-[1-(methoxycarbonylmethyl)piperidin-4-ylmethyloxy]benzyl}-8-oxoadenine], the EC50 is 3.6 nM.

On to `CCCCOc1nc(N)c2[nH]c(=O)n(Cc3ccc(OCC4CCN(CC(=O)OCCCCN(C)C)CC4)cc3)c2n1` [Example 7, 2-Butoxy-7,8-dihydro-9-[4-{1-[4-(N,N-dimethylamino)-butoxycarbonylmethyl]piperidin-4-ylmethyloxy}benzyl]-8-oxoadenine], for which the EC50 came to 5.1 nM.

Turning to `CCCCOc1nc(N)c2[nH]c(=O)n(Cc3ccc(CN(C)CC(=O)OC)cc3)c2n1` [Example 9, 2-Butoxy-7,8-dihydro-9-[4-(N-methoxycarbonylmethyl-N-methylaminomethyl)benzyl]-8-oxoadenine], the concentration giving a half-maximal response (EC50) amounted to 8.8 nM.

As for `COCCOc1nc(N)c2[nH]c(=O)n(Cc3ccc(CN(C)CC(=O)OC)cc3)c2n1` [Example 12, 7,8-Dihydro-9-[4-(N-methoxycarbonylmethyl-N-methylaminomethyl)benzyl]-2-(2-methoxyethoxy)-8-oxoadenine], the half-maximal effective concentration (EC50) was 252 nM.

Regarding `CCCCOc1nc(N)c2[nH]c(=O)n(Cc3ccc(CN(C)CC(=O)OC)cc3OC)c2n1` [Example 16, 2-Butoxy-7,8-dihydro-9-[2-methoxy-4-(N-methoxycarbonylmethyl-N-methylaminomethyl)benzyl]-8-oxoadenine], the EC50 is 15.6 nM.

As for `CCCCOc1nc(N)c2[nH]c(=O)n(Cc3ccc(CCN4CCC(C(=O)OC)CC4)cc3)c2n1` [Example 18, 2-Butoxy-7,8-dihydro-9-{4-[2-(4-methoxycarbonyl-piperidin-1-yl)ethyl]benzyl}-8-oxoadenine], the EC50 came out at 2.2 nM.

With `CCCCOc1nc(N)c2[nH]c(=O)n(Cc3ccc(CCN(C)CC(=O)OC)cc3)c2n1` [Example 20, 2-Butoxy-7,8-dihydro-9-{4-[2-(N-methoxycarbonylmethyl-N-methylamino)ethyl]benzyl}-8-oxoadenine], the concentration giving a half-maximal response (EC50) was 18.5 nM.

In the case of `CCCCOc1nc(N)c2[nH]c(=O)n(Cc3ccc(CCCN(C)CC(=O)OC)cc3)c2n1` [Example 21, 2-Butoxy-7,8-dihydro-9-{4-[3-(N-methoxycarbonylmethyl-N-methylamino)propyl]benzyl}-8-oxoadenine], the concentration giving a half-maximal response (EC50) came to 6.8 nM.

Regarding `CCCCOc1nc(N)c2[nH]c(=O)n(Cc3ccc(CN(C)CC(=O)OCCCCN(C)C)cc3OC)c2n1` [Example 23, 2-Butoxy-7,8-dihydro-9-{4-[N-(4-dimethylaminobutoxy-carbonylmethyl)-N-methylaminomethyl]-2-methoxybenzyl}-8-oxoadenine], the 50% effective concentration (EC50) stood at 15.7 nM.

`CCCCOc1nc(N)c2[nH]c(=O)n(Cc3ccc(OCCCCN4CCC(C(=O)OC)CC4)nc3)c2n1` [Example 24, 2-butoxy-7,8-dihydro-9-{6-[4-(4-methoxylcarbonylpiperidin-1-yl)butoxy]pyridin-3-ylmethyl}-8-oxoadenine]: the EC50 is < 1 nM.

On to `CCCCOc1nc(N)c2[nH]c(=O)n(Cc3ccc(OCCCCN(C)CC(=O)OC)nc3)c2n1` [Example 26], for which the concentration for a half-maximal effect (EC50) was 2.8 nM.

With `CCCCOc1nc(N)c2[nH]c(=O)n(Cc3ccc(OCCCCN(C)CC(=O)OCCCCN(C)C)nc3)c2n1` [Example 28, 2-Butoxy-7,8-dihydro-9-[6-(4-{N′-methyl-N′-[4-(N,N-dimethylamino)butoxycarbonylmethyl]}aminobutoxy)pyridin-3-ylmethyl]-8-oxoadenine], the 50% effective concentration (EC50) worked out at 2 nM.
